Measurements from the NIST ThermoML archive (doi:10.1016/j.jct.2015.09.012).

Tests used:
[1] = 298.15 K; 101.33 kPa; Liquid; Vibrating tube method
[2] = molar heat capacity at constant pressure; conditions: Liquid
[3] = molar heat capacity at constant pressure; xn = mol fraction of the nth substance listed; conditions: 100 kPa, Liquid, Large sample (1 g) DSC

CC12CCC(CC1)C(C)(C)O2 [1,3,3-trimethyl-2-oxabicyclo[2.2.2]octane]
Conditions	mass density [kg/m3]
[1]	920.51

[2]
Conditions	molar heat capacity at constant pressure [J/K/mol]
293.26 K, 101.33 kPa, Small sample (50 mg) DSC	266.9
303.48 K, 101.33 kPa, Small sample (50 mg) DSC	273
304.7 K, 100 kPa, Large sample (1 g) DSC	273.3
309.6 K, 100 kPa, Large sample (1 g) DSC	276.4
313.71 K, 101.33 kPa, Small sample (50 mg) DSC	279.5
314.6 K, 100 kPa, Large sample (1 g) DSC	279.5
319.5 K, 100 kPa, Large sample (1 g) DSC	282.6
323.93 K, 101.33 kPa, Small sample (50 mg) DSC	285.2
324.5 K, 100 kPa, Large sample (1 g) DSC	285.1
334.16 K, 101.33 kPa, Small sample (50 mg) DSC	290.8
344.38 K, 101.33 kPa, Small sample (50 mg) DSC	297.7

CC12CCC(CC1)C(C)(C)O2 [1,3,3-trimethyl-2-oxabicyclo[2.2.2]octane] + CCO
molar heat capacity at constant pressure [J/K/mol], [3]
Conditions	304.7 K	309.6 K	314.6 K	319.5 K	324.5 K
x1 = 0.0506	123.9	126.2	128.6	131.1	133.5
x1 = 0.099	132	134.6	137.1	139.7	142.1
x1 = 0.1999	149	151.8	154.6	157.1	160
x1 = 0.3007	166	169	171.8	174.9	177.7
x1 = 0.3956	181.7	184.9	188.1	191.1	194.1
x1 = 0.5002	199.4	202.5	205.5	208.5	211.3
x1 = 0.5975	214.3	217.4	221.5	224.5	227.4
x1 = 0.7017	231.6	235.1	238	241.2	244.1
x1 = 0.8065	247.2	250.5	253.6	256.7	259.3
x1 = 0.8964	259.8	263.7	267	269.9	272.5
x1 = 0.9501	267	269.9	273.4	275.8	279
x1 = 1	273.3	276.4	279.5	282.6	285.1

CCO [ethanol]
Conditions	mass density [kg/m3]
[1]	785.2

[2], 100 kPa, Large sample (1 g) DSC
Conditions	molar heat capacity at constant pressure [J/K/mol]
304.7 K	115.3
309.6 K	117.3
314.6 K	119.6
319.5 K	121.9
324.5 K	124.2

CCO [ethanol] + CC12CCC(CC1)C(C)(C)O2
[3], x2 = 0
Conditions	molar heat capacity at constant pressure [J/K/mol]
304.7 K	115.3
309.6 K	117.3
314.6 K	119.6
319.5 K	121.9
324.5 K	124.2
